Where a name gives a salt, the structure may show the parent alone. Read-outs that look alike come from different tables or passages of the source.

Assay in all cases: AK assay 384-well format, Prestwick library screening
The subject of assay [1] is K. pneumoniae. The class given is cell-based, Klebsiella pneumoniae. The settings on record: 50 μM final drug concentration; for fold induction at 50 µM: Klebsiella pneumoniae, 3 h.
Assay [2] has as its system E. coli. The class given is cell-based, Escherichia coli. The settings on record: 50 μM final drug concentration; for fold induction at 50 µM: Escherichia coli, 3 h.
The test system of assay [3] is E. cloacae. The class given is cell-based, Enterobacter cloacae. The settings on record: 50 μM final drug concentration; for fold induction at 50 µM: Enterobacter cloacae, 3 h.
Assay [4] concerns S. aureus strain USA300-0114. It is filed as cell-based, Staphylococcus aureus. The conditions noted are these: 50 μM final drug concentration; for fold induction at 50 µM: Staphylococcus aureus, USA300, 3 h.
For assay [5], the system named is E. faecium. The class given is cell-based, Enterococcus faecium. The conditions noted are these: 50 μM final drug concentration; for fold induction at 50 µM: Enterococcus faecium, 3 h.
Assay [6] deals with A. baumannii strain 98-37-09. It is filed as cell-based, Acinetobacter baumannii. The settings on record: 50 μM final drug concentration; for fold induction at 50 µM: Acinetobacter baumannii, 983709, 3 h.
Assay [7] concerns P. aeruginosa. It is filed as cell-based, Pseudomonas aeruginosa. The conditions noted are these: 50 μM final drug concentration; for fold induction at 50 µM: Pseudomonas aeruginosa, 3 h.
[8] abbreviates: planktonic, cutoff for positive 3-fold increase.
[9] abbreviates: planktonic K. pneumoniae, cutoff for positive-scoring molecules 3-fold increase, read-out: AK-based Prestwick Library Screening Results, K. pneumoniae (increase in extracellular AK activity).
Setting [10] is: planktonic E. coli, cutoff for positive-scoring molecules 3-fold increase, read-out: AK-based Prestwick Library Screening Results, E. coli (increase in extracellular AK activity).
Setting [11] is: planktonic E. cloacae, cutoff for positive-scoring molecules 3-fold increase, read-out: AK-based Prestwick Library Screening Results, E. cloacae (increase in extracellular AK activity).
[12] abbreviates: planktonic S. aureus, cutoff for positive-scoring molecules 3-fold increase, read-out: AK-based Prestwick Library Screening Results, S. aureus (increase in extracellular AK activity).
Where [13] appears, read: planktonic E. faecium, cutoff for positive-scoring molecules 3-fold increase, read-out: AK-based Prestwick Library Screening Results, E. faecium (increase in extracellular AK activity).
Where [14] appears, read: planktonic A. baumannii, cutoff for positive-scoring molecules 3-fold increase, read-out: AK-based Prestwick Library Screening Results, A. baumannii (increase in extracellular AK activity).
Setting [15] is: planktonic P. aeruginosa, cutoff for positive-scoring molecules 3-fold increase, read-out: AK-based Prestwick Library Screening Results, P. aeruginosa (increase in extracellular AK activity).

For the molecule `CCN(CC)CCOc1ccc(C(=C(Cl)c2ccccc2)c2ccccc2)cc1.O=C(O)CC(O)(CC(=O)O)C(=O)O` [Clomiphene citrate (Z,E)], in assay [1] (setting [8]), the “AK-based Prestwick Library Screening Results, K. pneumoniae (fold increase in extracellular AK activity)” value amounted to 1.6. The “AK-based Prestwick Library Screening Results, E. coli (fold increase in extracellular AK activity)” value in assay [2] (setting [8]) is 1.8. For the same molecule, the “AK-based Prestwick Library Screening Results, E. cloacae (fold increase in extracellular AK activity)” value in assay [3] (setting [8]) was 1.9. Further, in assay [4] (setting [8]), the “AK-based Prestwick Library Screening Results, S. aureus (fold increase in extracellular AK activity)” value is given as 2.0. For the same molecule, the “AK-based Prestwick Library Screening Results, E. faecium (fold increase in extracellular AK activity)” value in assay [5] (setting [8]) was 4.4. Besides, the “AK-based Prestwick Library Screening Results, A. baumannii (fold increase in extracellular AK activity)” value in assay [6] (setting [8]) is 5.4. In assay [7] (setting [8]), the “AK-based Prestwick Library Screening Results, P. aeruginosa (fold increase in extracellular AK activity)” value is on record as 1.4.

With `CNCCCC12CCC(c3ccccc31)c1ccccc12` [Maprotiline hydrochloride], the fold induction at 50 µM in assay [1] (setting [9]) turned out to be 0.6; in assay [2] (setting [10]), 0.8; in assay [3] (setting [11]), 0.9; in assay [4] (setting [12]) it was 1.1; in assay [5] (setting [13]), 0.8; in assay [6] (setting [14]), 0.8. For the same molecule, the fold induction at 50 µM in assay [7] (setting [15]) is 0.9.

As for `O=C(CCCN1CCC(n2c(O)nc3ccccc32)CC1)c1ccc(F)cc1` [Benperidol], the fold induction at 50 µM is 0.5 in assay [1] (setting [9]); 0.6 in assay [2] (setting [10]); 0.6 in assay [3] (setting [11]); 0.5 in assay [4] (setting [12]); 1 in assay [5] (setting [13]); 0.5 in assay [6] (setting [14]). Also, in assay [7] (setting [15]), the fold induction at 50 µM came out at 0.6.

In the case of `[H]/N=C(/N)NS(=O)(=O)c1ccc(N)cc1` [Sulfaguanidine], the fold induction at 50 µM in assay [1] (384-well format, cutoff for positive-scoring molecules 3-fold increase, read-out: AK-based Prestwick Library Screening Results, K. pneumoniae (increase in extracellular AK activity)) is 0.6; in assay [2] (384-well format, cutoff for positive-scoring molecules 3-fold increase, read-out: AK-based Prestwick Library Screening Results, E. coli (increase in extracellular AK activity)), 0.5; in assay [3] (384-well format, cutoff for positive-scoring molecules 3-fold increase, read-out: AK-based Prestwick Library Screening Results, E. cloacae (increase in extracellular AK activity)), 0.4; in assay [4] (384-well format, cutoff for positive-scoring molecules 3-fold increase, read-out: AK-based Prestwick Library Screening Results, S. aureus (increase in extracellular AK activity)) it was 0.5; in assay [5] (384-well format, cutoff for positive-scoring molecules 3-fold increase, read-out: AK-based Prestwick Library Screening Results, E. faecium (increase in extracellular AK activity)), 1; in assay [6] (384-well format, cutoff for positive-scoring molecules 3-fold increase, read-out: AK-based Prestwick Library Screening Results, A. baumannii (increase in extracellular AK activity)), 0.5. In assay [7] (384-well format, cutoff for positive-scoring molecules 3-fold increase, read-out: AK-based Prestwick Library Screening Results, P. aeruginosa (increase in extracellular AK activity)), the fold induction at 50 µM is 0.5.

As for `COc1cc2nc(N3CCN(C(=O)C4CCCO4)CC3)nc(N)c2cc1OC` (centres unmarked) [Terazosin hydrochloride], the fold induction at 50 µM in assay [1] (planktonic, cutoff for positive-scoring molecules 3-fold increase, read-out: AK-based Prestwick Library Screening Results, K. pneumoniae (fold increase in extracellular AK activity)) worked out at 0.7; in assay [2] (planktonic, cutoff for positive-scoring molecules 3-fold increase, read-out: AK-based Prestwick Library Screening Results, E. coli (fold increase in extracellular AK activity)) it was 0.8; in assay [3] (planktonic, cutoff for positive-scoring molecules 3-fold increase, read-out: AK-based Prestwick Library Screening Results, E. cloacae (fold increase in extracellular AK activity)) it was 1.2; in assay [4] (planktonic, cutoff for positive-scoring molecules 3-fold increase, read-out: AK-based Prestwick Library Screening Results, S. aureus (fold increase in extracellular AK activity)), 0.8; in assay [5] (planktonic, cutoff for positive-scoring molecules 3-fold increase, read-out: AK-based Prestwick Library Screening Results, E. faecium (fold increase in extracellular AK activity)), 0.8; in assay [6] (planktonic, cutoff for positive-scoring molecules 3-fold increase, read-out: AK-based Prestwick Library Screening Results, A. baumannii (fold increase in extracellular AK activity)), 0.7. Besides, the fold induction at 50 µM in assay [7] (planktonic, cutoff for positive-scoring molecules 3-fold increase, read-out: AK-based Prestwick Library Screening Results, P. aeruginosa (fold increase in extracellular AK activity)) was 0.6.

Regarding `c1ccc2c(c1)CCCc1cc(NCCN3CCOCC3)nnc1-2` [SR-95639A], the “AK-based Prestwick Library Screening Results: K. pneumoniae (increase in extracellular AK activity)” value in assay [1] (planktonic K. pneumoniae, 384-well, […]) worked out at 0.5. In addition, the “AK-based Prestwick Library Screening Results: E. coli (increase in extracellular AK activity)” value in assay [2] (planktonic E. coli, 384-well, […]) is 0.5. The “AK-based Prestwick Library Screening Results: E. cloacae (increase in extracellular AK activity)” value in assay [3] (planktonic E. cloacae, 384-well, […]) amounted to 0.4. Moreover, the “AK-based Prestwick Library Screening Results: S. aureus (increase in extracellular AK activity)” value in assay [4] (planktonic S. aureus, 384-well, […]) amounted to 0.4. In addition, in assay [5] (planktonic E. faecium, 384-well, […]), the “AK-based Prestwick Library Screening Results: E. faecium (increase in extracellular AK activity)” value came out at 0.8. For the same molecule, the “AK-based Prestwick Library Screening Results: A. baumannii (increase in extracellular AK activity)” value in assay [6] (planktonic A. baumannii, 384-well, […]) was determined as 0.5. For the same molecule, in assay [7] (planktonic P. aeruginosa, 384-well, […]), the “AK-based Prestwick Library Screening Results: P. aeruginosa (increase in extracellular AK activity)” value was determined as 0.4.

In the case of `C[C@@H]1[C@H](O)[C@@H](C)/C=C/C=C/C=C/C=C/C=C/C=C/C=C/[C@H](O[C@@H]2O[C@H](C)[C@@H](O)[C@H](N)[C@@H]2O)C[C@@H]2O[C@](O)(C[C@@H](O)C[C@@H](O)[C@H](O)CC[C@@H](O)C[C@@H](O)CC(=O)O[C@H]1C)C[C@H](O)[C@H]2C(=O)O` [Amphotericin B], the “AK-based Prestwick Library Screening Results: K. pneumoniae (increase in extracellular AK activity)” value in assay [1] (planktonic K. pneumoniae, 384-well, cutoff for positive-scoring molecules 3-fold increase) is reported as 0.7. Moreover, in assay [2] (planktonic E. coli, 384-well, cutoff for positive-scoring molecules 3-fold increase), the “AK-based Prestwick Library Screening Results: E. coli (increase in extracellular AK activity)” value turned out to be 0.5. The “AK-based Prestwick Library Screening Results: E. cloacae (increase in extracellular AK activity)” value in assay [3] (planktonic E. cloacae, 384-well, cutoff for positive-scoring molecules 3-fold increase) came to 0.5. In addition, the “AK-based Prestwick Library Screening Results: S. aureus (increase in extracellular AK activity)” value in assay [4] (planktonic S. aureus, 384-well, cutoff for positive-scoring molecules 3-fold increase) came out at 0.5. The “AK-based Prestwick Library Screening Results: E. faecium (increase in extracellular AK activity)” value in assay [5] (planktonic E. faecium, 384-well, cutoff for positive-scoring molecules 3-fold increase) amounted to 0.9. Also, the “AK-based Prestwick Library Screening Results: A. baumannii (increase in extracellular AK activity)” value in assay [6] (planktonic A. baumannii, 384-well, cutoff for positive-scoring molecules 3-fold increase) turned out to be 0.5. Also, in assay [7] (planktonic P. aeruginosa, 384-well, cutoff for positive-scoring molecules 3-fold increase), the “AK-based Prestwick Library Screening Results: P. aeruginosa (increase in extracellular AK activity)” value is 0.4.

`CC(C)NCC(O)COc1ccc(COCCOC(C)C)cc1` (centres unmarked) [Bisoprolol fumarate]: the fold induction at 50 µM amounted to 0.5 in assay [1] (planktonic K. pneumoniae, 384-well, cutoff for positive-scoring molecules 3-fold increase, read-out: AK-based Prestwick Library Screening Results: K. pneumoniae (increase in extracellular AK activity)); 0.5 in assay [2] (planktonic E. coli, 384-well, cutoff for positive-scoring molecules 3-fold increase, read-out: AK-based Prestwick Library Screening Results: E. coli (increase in extracellular AK activity)); 0.6 in assay [3] (planktonic E. cloacae, 384-well, cutoff for positive-scoring molecules 3-fold increase, read-out: AK-based Prestwick Library Screening Results: E. cloacae (increase in extracellular AK activity)); 0.6 in assay [4] (planktonic S. aureus, 384-well, cutoff for positive-scoring molecules 3-fold increase, read-out: AK-based Prestwick Library Screening Results: S. aureus (increase in extracellular AK activity)); 0.9 in assay [5] (planktonic E. faecium, 384-well, cutoff for positive-scoring molecules 3-fold increase, read-out: AK-based Prestwick Library Screening Results: E. faecium (increase in extracellular AK activity)); 0.5 in assay [6] (planktonic A. baumannii, 384-well, cutoff for positive-scoring molecules 3-fold increase, read-out: AK-based Prestwick Library Screening Results: A. baumannii (increase in extracellular AK activity)). Also, the fold induction at 50 µM in assay [7] (planktonic P. aeruginosa, 384-well, cutoff for positive-scoring molecules 3-fold increase, read-out: AK-based Prestwick Library Screening Results: P. aeruginosa (increase in extracellular AK activity)) amounted to 0.5.
